From KR20180060184A, “Ccsp-2와 특이적으로 결합하는 펩타이드 및 이의 용도” (재단법인 아산사회복지재단, priority 2016, dated 2018)
pKd: −log10 of the molar value. Residues, ends and D or L forms follow the SMILES beside them.

Tests used:
CCSP-2 단백질 = target: T1, CCSP-2 단백질 (Homo sapiens, UniProt Q5GFL6); assay: Fluorescence correlation spectroscopy (FCS), dissociation constant with CCSP-2 protein; type: binding; conditions: (peptide)-(GGGSK)-FITC-NH2 conjugate; CCSP-2 0-300 uM; Fig. 5; read-out: 해리상수 (Dissociation constant, Kd)
T1 sequence (Q5GFL6 24-755): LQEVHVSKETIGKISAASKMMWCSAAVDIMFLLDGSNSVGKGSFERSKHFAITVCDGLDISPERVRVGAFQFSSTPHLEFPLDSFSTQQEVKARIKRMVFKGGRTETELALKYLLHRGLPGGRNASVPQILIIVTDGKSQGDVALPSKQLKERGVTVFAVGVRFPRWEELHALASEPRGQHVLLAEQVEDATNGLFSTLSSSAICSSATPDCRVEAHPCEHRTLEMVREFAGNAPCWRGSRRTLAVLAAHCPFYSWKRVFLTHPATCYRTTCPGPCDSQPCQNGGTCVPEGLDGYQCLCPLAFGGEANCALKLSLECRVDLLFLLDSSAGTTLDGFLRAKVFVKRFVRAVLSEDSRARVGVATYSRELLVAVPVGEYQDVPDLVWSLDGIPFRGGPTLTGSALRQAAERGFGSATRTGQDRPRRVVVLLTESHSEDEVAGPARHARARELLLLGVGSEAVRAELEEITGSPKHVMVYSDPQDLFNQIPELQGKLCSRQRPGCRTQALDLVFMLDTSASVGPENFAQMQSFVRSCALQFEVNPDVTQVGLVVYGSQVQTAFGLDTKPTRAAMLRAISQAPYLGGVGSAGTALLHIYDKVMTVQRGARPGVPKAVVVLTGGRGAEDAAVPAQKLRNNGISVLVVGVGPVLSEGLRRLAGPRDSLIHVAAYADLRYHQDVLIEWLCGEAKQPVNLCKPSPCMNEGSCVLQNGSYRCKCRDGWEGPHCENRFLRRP

CCSP-2 = target: T2, CCSP-2 (Homo sapiens, UniProt Q5GFL6); assay: Phage display biopanning on purified CCSP-2 and sequencing of selected clones; type: binding; conditions: after 4 rounds of panning on CCSP-2
T2 construct: His tag; made in house; host or cells: CCSP-2-overexpressing HeLa cell line (provided by Case Western Reserve University); the secreted protein was captured from the conditioned medium on Ni-NTA agarose
T2 sequence (Q5GFL6 24-755): T1 sequence (Q5GFL6 24-755)

Molecule | pKd (CCSP-2 단백질) | 빈도 (frequency among the 56 sequences, percent) (CCSP-2) [%]
CSCC[C@H](N)C(=O)N[C@@H](CO)C(=O)N[C@H](C(=O)NCC(=O)N[C@@H](CC(C)C)C(=O)N[C@@H](CO)C(=O)N[C@@H](CO)C(=O)O)[C@@H](C)O [MSJ3, MSTGLSS] (H-MSTGLSS-OH) | 4.60 | –
CC(C)C[C@H](NC(=O)[C@H](CCCCN)NC(=O)[C@@H](N)CC(C)C)C(=O)NCC(=O)N[C@@H](CCC(=O)O)C(=O)N[C@@H](CCCCN)C(=O)N[C@@H](Cc1c[nH]c2ccccc12)C(=O)O [MSJ6, LKLGEKW] (H-LKLGEKW-OH) | 4.21 | –
NTGSPYE [MSJ1] | – | 16.1
N=C(N)NCCC[C@H](NC(=O)[C@H](Cc1ccccc1)NC(=O)[C@H](CCCCN)NC(=O)[C@H](CO)NC(=O)[C@H](Cc1ccccc1)NC(=O)[C@@H](N)CCC(=O)O)C(=O)N[C@@H](CO)C(=O)O [MSJ2, EFSKFRS] (H-EFSKFRS-OH) | 4.26 | –

Now from value to molecule:

pKd (CCSP-2 단백질) | 빈도 (frequency among the 56 sequences, percent) (CCSP-2) [%] | Molecule
– | 12.5 | WWNPLRP [MSJ10]
4.21 | – | N=C(N)NCCC[C@H](NC(=O)[C@H](CC(N)=O)NC(=O)[C@H](Cc1ccccc1)NC(=O)[C@H](CO)NC(=O)[C@H](CO)NC(=O)[C@H](Cc1ccc(O)cc1)NC(=O)CN)C(=O)O [MSJ11, GYSSFNR] (H-GYSSFNR-OH)
